Measurements taken from PMC6540285, “Evaluation of Protein Kinase Inhibitors with PLK4 Cross-Over Potential in a Pre-Clinical Model of Cancer” (International Journal of Molecular Sciences, 2019).

Key:
ABL1 F317I = ABL1 F317I (Homo sapiens, UniProt P00519, F317I); experiment: SelectScreen kinase profiling, ZLYTE; type: biochemical
ABL1 H396P = ABL1 H396P (Homo sapiens, UniProt P00519, H396P); experiment: SelectScreen kinase profiling, LanthaScreen binding
AKT2 (PKB beta) = AKT2 (PKB beta) (Homo sapiens, UniProt P31751); experiment: SelectScreen kinase profiling, ZLYTE; type: biochemical
AMPK (A1/B2/G3) = AMPK (A1/B2/G3) (Homo sapiens, UniProt Q13131); experiment: SelectScreen kinase profiling, ZLYTE; type: biochemical
AMPK (A2/B2/G1) = AMPK (A2/B2/G1) (Homo sapiens, UniProt P54646); experiment: SelectScreen kinase profiling, LanthaScreen binding
BRAF = BRAF (Homo sapiens, UniProt P15056); experiment: as above
CAMK2A (CaMKII alpha) = CAMK2A (CaMKII alpha) (Homo sapiens, UniProt Q9UQM7); experiment: SelectScreen kinase profiling, ZLYTE; type: biochemical
CDC42 BPA (MRCKA) = CDC42 BPA (MRCKA) (Homo sapiens, UniProt Q5VT25); experiment: SelectScreen kinase profiling, ZLYTE; type: biochemical
CSNK1D (CK1 delta) = CSNK1D (CK1 delta) (Homo sapiens, UniProt P48730); experiment: SelectScreen kinase profiling, ZLYTE; type: biochemical
CSNK2A2 (CK2 alpha 2) = CSNK2A2 (CK2 alpha 2) (Homo sapiens, UniProt P19784); experiment: SelectScreen kinase profiling, ZLYTE; type: biochemical
ERBB4 (HER4) = ERBB4 (HER4) (Homo sapiens, UniProt Q15303); experiment: SelectScreen kinase profiling, ZLYTE; type: biochemical
P450 2B6 = P450 2B6 (Homo sapiens, UniProt P20813)
GSK3B (GSK3 beta) = GSK3B (GSK3 beta) (Homo sapiens, UniProt P49841); experiment: SelectScreen kinase profiling, ZLYTE; type: biochemical
KIT D820E = KIT D820E (Homo sapiens, UniProt P10721, D820E); experiment: SelectScreen kinase profiling, LanthaScreen binding
KIT V559D V654A = KIT V559D V654A (Homo sapiens, UniProt P10721, V559D/V654A); experiment: SelectScreen kinase profiling, ZLYTE; type: biochemical
LRRK2 G2019S = LRRK2 G2019S (Homo sapiens, UniProt Q5S007, G2019S); experiment: SelectScreen kinase profiling, Adapta; type: biochemical
MAP2K6 (MKK6) = MAP2K6 (MKK6) (Homo sapiens, UniProt P52564); experiment: SelectScreen kinase profiling, LanthaScreen binding
MAP4K5 (KHS1) = MAP4K5 (KHS1) (Homo sapiens, UniProt Q9Y4K4); experiment: SelectScreen kinase profiling, ZLYTE; type: biochemical
MAPK1 (ERK2) = MAPK1 (ERK2) (Homo sapiens, UniProt P28482); experiment: SelectScreen kinase profiling, ZLYTE; type: biochemical
MAPK10 (JNK3) = MAPK10 (JNK3) (Homo sapiens, UniProt P53779); experiment: SelectScreen kinase profiling, LanthaScreen binding
MAPK11 (p38 beta) = MAPK11 (p38 beta) (Homo sapiens, UniProt Q15759); experiment: SelectScreen kinase profiling, ZLYTE; type: biochemical
MARK4 = MARK4 (Homo sapiens, UniProt Q96L34); experiment: SelectScreen kinase profiling, ZLYTE; type: biochemical; conditions: MARK4, 10 µM
MINK1 = MINK1 (Homo sapiens, UniProt Q8N4C8); experiment: SelectScreen kinase profiling, ZLYTE; type: biochemical; conditions: MINK1, 10 µM
MYLK2 (skMLCK) = MYLK2 (skMLCK) (Homo sapiens, UniProt Q9H1R3); experiment: SelectScreen kinase profiling, ZLYTE; type: biochemical
NEK4 = NEK4 (Homo sapiens, UniProt P51957); experiment: SelectScreen kinase profiling, ZLYTE; type: biochemical; conditions: NEK4, 10 µM
NTRK2 (TRKB) = NTRK2 (TRKB) (Homo sapiens, UniProt Q16620); experiment: SelectScreen kinase profiling, ZLYTE; type: biochemical
PIK3CG (p110 gamma) = PIK3CG (p110 gamma) (Homo sapiens, UniProt P48736); experiment: SelectScreen kinase profiling, Adapta; type: biochemical
PLK3 = PLK3 (Homo sapiens, UniProt Q9H4B4); experiment: SelectScreen kinase profiling, ZLYTE; type: biochemical; conditions: PLK3, 10 µM
PRKCD (PKC delta) = PRKCD (PKC delta) (Homo sapiens, UniProt Q05655); experiment: SelectScreen kinase profiling, ZLYTE; type: biochemical
PRKCG (PKC gamma) = PRKCG (PKC gamma) (Homo sapiens, UniProt P05129); experiment: SelectScreen kinase profiling, ZLYTE; type: biochemical
RET V804E = RET V804E (Homo sapiens, UniProt P07949, V804E); experiment: SelectScreen kinase profiling, ZLYTE; type: biochemical
ROCK2 = ROCK2 (Homo sapiens, UniProt O75116); experiment: SelectScreen kinase profiling, ZLYTE; type: biochemical; conditions: ROCK2, 10 µM
RPS6KA1 (RSK1) = RPS6KA1 (RSK1) (Homo sapiens, UniProt Q15418); experiment: SelectScreen kinase profiling, ZLYTE; type: biochemical
RPS6KA5 (MSK1) = RPS6KA5 (MSK1) (Homo sapiens, UniProt O75582); experiment: SelectScreen kinase profiling, ZLYTE; type: biochemical
SGK (SGK1) = SGK (SGK1) (Homo sapiens, UniProt O00141); experiment: SelectScreen kinase profiling, ZLYTE; type: biochemical
SRPK2 = SRPK2 (Homo sapiens, UniProt P78362); experiment: SelectScreen kinase profiling, ZLYTE; type: biochemical; conditions: SRPK2, 10 µM
ZAP70 = ZAP70 (Homo sapiens, UniProt P43403); experiment: SelectScreen kinase profiling, ZLYTE; type: biochemical; conditions: ZAP70, 10 µM
Description: Kinase Technology % Inhibition Avg Kinase Technology % Inhibition Avg […]
TESK1 LanthaScreen 37 ZAP70 ZLYTE 24
cleavage (Thermo Fisher Scientific, USA)

P450 2C8 = P450 2C8 (Homo sapiens, UniProt P10632); experiment: SelectScreen P450 Vivid biochemical assay; conditions: 10000nM; substrate DBOMF

P450 2B6, sequence (P20813 whole entry): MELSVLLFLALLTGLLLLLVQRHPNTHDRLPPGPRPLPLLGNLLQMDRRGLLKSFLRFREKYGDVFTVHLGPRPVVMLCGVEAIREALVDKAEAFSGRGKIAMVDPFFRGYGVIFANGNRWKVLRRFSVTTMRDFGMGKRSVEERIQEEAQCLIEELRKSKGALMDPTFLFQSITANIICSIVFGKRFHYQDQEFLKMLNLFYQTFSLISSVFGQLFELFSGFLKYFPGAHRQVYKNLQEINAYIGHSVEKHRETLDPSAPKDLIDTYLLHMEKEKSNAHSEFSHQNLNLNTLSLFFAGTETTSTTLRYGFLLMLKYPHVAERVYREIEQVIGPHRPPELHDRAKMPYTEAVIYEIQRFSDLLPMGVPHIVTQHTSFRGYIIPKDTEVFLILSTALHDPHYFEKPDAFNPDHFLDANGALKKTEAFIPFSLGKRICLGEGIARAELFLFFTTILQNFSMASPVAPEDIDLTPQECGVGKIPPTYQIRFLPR
CSNK2A2 (CK2 alpha 2), sequence (P19784 whole entry): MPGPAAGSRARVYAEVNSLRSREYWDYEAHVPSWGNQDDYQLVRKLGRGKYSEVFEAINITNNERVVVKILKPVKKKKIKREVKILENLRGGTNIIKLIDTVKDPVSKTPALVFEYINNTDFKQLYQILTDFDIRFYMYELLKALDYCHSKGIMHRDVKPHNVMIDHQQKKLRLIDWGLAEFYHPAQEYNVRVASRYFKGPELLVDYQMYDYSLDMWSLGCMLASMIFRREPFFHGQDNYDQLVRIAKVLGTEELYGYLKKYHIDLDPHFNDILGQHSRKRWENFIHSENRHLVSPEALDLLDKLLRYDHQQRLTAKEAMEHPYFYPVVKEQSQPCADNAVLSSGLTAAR
PRKCD (PKC delta), sequence (Q05655 whole entry): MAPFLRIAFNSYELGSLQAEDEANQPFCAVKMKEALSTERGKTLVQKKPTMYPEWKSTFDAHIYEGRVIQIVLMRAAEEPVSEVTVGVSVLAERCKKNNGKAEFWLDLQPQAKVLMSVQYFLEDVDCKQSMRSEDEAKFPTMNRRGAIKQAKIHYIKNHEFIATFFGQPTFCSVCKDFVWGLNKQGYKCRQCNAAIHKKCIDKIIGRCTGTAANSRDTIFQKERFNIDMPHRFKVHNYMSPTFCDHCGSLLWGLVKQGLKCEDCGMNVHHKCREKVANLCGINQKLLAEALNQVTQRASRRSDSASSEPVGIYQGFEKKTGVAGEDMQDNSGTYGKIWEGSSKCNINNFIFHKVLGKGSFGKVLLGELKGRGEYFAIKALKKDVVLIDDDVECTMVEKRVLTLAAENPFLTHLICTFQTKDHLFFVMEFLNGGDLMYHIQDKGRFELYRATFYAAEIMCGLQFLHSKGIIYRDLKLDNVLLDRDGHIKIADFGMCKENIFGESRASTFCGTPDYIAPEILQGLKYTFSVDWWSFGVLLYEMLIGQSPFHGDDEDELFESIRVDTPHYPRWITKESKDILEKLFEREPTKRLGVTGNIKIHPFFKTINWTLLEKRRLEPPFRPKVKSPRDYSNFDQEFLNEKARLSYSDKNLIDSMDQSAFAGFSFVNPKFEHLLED
KIT D820E, sequence (P10721 26-976 D820E): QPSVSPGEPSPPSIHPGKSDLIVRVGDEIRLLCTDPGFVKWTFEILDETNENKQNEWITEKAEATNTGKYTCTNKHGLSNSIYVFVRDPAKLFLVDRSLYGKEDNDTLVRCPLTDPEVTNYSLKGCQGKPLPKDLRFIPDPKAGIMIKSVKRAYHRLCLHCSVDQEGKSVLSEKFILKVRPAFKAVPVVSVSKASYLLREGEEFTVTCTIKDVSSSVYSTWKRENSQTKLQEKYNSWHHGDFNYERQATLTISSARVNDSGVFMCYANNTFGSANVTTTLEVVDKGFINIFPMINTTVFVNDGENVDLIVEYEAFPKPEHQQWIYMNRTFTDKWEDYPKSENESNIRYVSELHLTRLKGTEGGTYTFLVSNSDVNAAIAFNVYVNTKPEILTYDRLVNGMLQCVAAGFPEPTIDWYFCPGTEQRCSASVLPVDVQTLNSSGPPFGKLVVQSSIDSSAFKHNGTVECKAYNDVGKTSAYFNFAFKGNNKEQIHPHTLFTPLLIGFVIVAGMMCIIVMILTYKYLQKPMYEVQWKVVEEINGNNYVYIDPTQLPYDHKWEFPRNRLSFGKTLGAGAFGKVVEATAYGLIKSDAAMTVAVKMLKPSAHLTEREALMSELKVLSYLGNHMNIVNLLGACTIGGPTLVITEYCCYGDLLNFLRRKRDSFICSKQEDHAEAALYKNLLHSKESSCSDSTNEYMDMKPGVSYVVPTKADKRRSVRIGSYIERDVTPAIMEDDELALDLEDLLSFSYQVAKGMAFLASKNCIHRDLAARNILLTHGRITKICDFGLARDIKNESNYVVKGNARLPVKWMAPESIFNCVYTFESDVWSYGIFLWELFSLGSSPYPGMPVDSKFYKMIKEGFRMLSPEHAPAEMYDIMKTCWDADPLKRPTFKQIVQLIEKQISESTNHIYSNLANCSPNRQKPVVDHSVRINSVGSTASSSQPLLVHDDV
AMPK (A2/B2/G1), sequence (P54646 whole entry): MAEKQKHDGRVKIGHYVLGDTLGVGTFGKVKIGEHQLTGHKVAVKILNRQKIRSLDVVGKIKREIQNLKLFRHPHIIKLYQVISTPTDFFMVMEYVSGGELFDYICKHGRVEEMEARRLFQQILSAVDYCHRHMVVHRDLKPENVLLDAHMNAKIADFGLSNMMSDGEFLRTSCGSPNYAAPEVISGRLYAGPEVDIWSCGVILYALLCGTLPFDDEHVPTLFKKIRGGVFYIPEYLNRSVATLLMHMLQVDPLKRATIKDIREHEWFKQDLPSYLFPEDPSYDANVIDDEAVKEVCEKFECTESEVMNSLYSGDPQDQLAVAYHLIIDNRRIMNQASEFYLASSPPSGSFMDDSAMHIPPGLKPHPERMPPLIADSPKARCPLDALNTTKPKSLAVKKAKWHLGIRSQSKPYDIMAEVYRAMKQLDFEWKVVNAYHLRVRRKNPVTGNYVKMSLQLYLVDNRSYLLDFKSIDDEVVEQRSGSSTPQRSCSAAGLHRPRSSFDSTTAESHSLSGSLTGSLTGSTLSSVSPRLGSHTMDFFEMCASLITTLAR
AMPK (A2/B2/G1), sequence (O43741 whole entry partner): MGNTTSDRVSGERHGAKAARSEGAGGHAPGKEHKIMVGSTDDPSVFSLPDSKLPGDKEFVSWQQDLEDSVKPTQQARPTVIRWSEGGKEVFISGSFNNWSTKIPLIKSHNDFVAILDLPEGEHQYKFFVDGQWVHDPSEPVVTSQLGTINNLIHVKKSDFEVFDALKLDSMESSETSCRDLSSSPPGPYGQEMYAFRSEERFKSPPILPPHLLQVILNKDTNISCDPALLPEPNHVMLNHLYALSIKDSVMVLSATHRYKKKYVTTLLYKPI
AMPK (A2/B2/G1), sequence (P54619 whole entry partner): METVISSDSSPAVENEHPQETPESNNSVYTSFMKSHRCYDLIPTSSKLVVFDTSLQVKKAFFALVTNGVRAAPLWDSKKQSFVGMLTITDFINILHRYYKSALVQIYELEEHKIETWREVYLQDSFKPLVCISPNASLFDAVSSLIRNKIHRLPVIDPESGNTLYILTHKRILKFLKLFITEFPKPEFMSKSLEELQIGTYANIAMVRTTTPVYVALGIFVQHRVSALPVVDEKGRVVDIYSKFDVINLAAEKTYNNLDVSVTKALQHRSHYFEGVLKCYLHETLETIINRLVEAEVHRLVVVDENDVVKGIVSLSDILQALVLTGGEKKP
BRAF, sequence (P15056 whole entry): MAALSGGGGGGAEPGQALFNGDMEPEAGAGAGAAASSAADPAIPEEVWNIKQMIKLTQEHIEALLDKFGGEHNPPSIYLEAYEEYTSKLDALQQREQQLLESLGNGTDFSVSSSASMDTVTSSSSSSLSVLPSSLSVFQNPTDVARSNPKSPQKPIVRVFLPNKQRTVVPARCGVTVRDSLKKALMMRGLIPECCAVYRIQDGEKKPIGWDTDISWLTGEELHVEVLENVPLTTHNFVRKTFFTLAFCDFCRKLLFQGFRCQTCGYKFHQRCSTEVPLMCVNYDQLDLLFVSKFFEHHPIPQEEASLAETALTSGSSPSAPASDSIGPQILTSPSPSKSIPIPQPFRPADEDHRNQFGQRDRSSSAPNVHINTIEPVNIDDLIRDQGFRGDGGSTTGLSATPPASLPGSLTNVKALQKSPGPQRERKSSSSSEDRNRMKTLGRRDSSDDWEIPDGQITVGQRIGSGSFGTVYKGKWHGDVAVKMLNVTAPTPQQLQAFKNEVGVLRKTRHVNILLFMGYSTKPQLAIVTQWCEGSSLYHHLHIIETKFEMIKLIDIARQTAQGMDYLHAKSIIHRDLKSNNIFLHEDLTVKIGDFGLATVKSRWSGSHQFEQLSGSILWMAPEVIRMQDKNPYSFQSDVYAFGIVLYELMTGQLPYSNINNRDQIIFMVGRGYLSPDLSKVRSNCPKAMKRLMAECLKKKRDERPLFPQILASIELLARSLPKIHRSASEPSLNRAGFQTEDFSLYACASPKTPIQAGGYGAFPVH
GSK3B (GSK3 beta), sequence (P49841 whole entry): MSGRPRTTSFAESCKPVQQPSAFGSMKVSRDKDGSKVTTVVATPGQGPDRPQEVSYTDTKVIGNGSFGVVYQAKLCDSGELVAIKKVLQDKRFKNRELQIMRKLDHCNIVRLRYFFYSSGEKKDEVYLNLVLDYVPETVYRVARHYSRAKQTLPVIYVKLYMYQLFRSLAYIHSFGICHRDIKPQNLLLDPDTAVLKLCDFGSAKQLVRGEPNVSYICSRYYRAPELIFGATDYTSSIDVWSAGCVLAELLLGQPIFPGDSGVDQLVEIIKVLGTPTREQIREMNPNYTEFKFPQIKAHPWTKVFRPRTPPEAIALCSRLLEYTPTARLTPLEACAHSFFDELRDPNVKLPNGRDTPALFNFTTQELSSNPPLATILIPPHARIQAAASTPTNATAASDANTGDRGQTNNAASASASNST
KIT V559D V654A, sequence (P10721 26-976 V559D/V654A): as the sequence (P10721 26-976 D820E) above, with V534D, V629A, E795D counted along it

Structure (SMILES): O=C(c1ccc(/C=C/c2n[nH]c3ccccc23)cc1)N1CCNCC1 [KW-2449]
- inhibition at 10 µM (ABL1 F317I): 94%
- inhibition at 10 µM (ABL1 H396P): 78%
- inhibition at 10 µM (AKT2 (PKB beta)): 29%
- inhibition at 10 µM (AMPK (A1/B2/G3)): 99%
- inhibition at 10 µM (AMPK (A2/B2/G1)): 75%
- inhibition at 10 µM (BRAF): -1%
- inhibition at 10 µM (CAMK2A (CaMKII alpha)): 67%
- inhibition at 10 µM (CDC42 BPA (MRCKA)): 32%
- inhibition at 10 µM (CSNK1D (CK1 delta)): 53%
- inhibition at 10 µM (CSNK2A2 (CK2 alpha 2)): 38%
- inhibition at 10 µM (ERBB4 (HER4)): 55%
- IC50 (P450 2B6): 9.8 µM
- inhibition at 10 µM (GSK3B (GSK3 beta)): 66%
- inhibition at 10 µM (KIT D820E): 81%
- inhibition at 10 µM (KIT V559D V654A): 77%
- inhibition at 10 µM (LRRK2 G2019S): 100%
- inhibition at 10 µM (MAP2K6 (MKK6)): 56%
- inhibition at 10 µM (MAP4K5 (KHS1)): 102%
- inhibition at 10 µM (MAPK1 (ERK2)): 45%
- inhibition at 10 µM (MAPK10 (JNK3)): 88%
- inhibition at 10 µM (MAPK11 (p38 beta)): 90%
- inhibition at 10 µM (MARK4): 101%
- inhibition at 10 µM (MINK1): 102%
- inhibition at 10 µM (MYLK2 (skMLCK)): 100%
- inhibition at 10 µM (NEK4): 96%
- inhibition at 10 µM (NTRK2 (TRKB)): 99%
- inhibition at 10 µM (PIK3CG (p110 gamma)): 8%
- inhibition at 10 µM (PLK3): -10%
- inhibition at 10 µM (PRKCD (PKC delta)): 25%
- inhibition at 10 µM (PRKCG (PKC gamma)): 81%
- inhibition at 10 µM (RET V804E): 94%
- inhibition at 10 µM (ROCK2): 83%
- inhibition at 10 µM (RPS6KA1 (RSK1)): 94%
- inhibition at 10 µM (RPS6KA5 (MSK1)): 49%
- inhibition at 10 µM (SGK (SGK1)): 98%
- inhibition at 10 µM (SRPK2): 32%
- inhibition at 10 µM (ZAP70): 24%
- % Inhibition 2C8 DBOMF (P450 2C8): 33%
